Assay results as given in patent US20230250129A1, “NEUROACTIVE STEROIDS AND COMPOSITIONS THEREOF” (Sage Therapeutics, Inc., priority 2020, published 2023).

Target: [35S]-TBPS binding, rat brain cortical membranes (GABAA receptor)
Test: Steroid inhibition of [35S]-TBPS binding
Conditions: 3 nM [35S]-TBPS, in the presence of 5 mM GABA, 90 min at room temp
Procedure: Steroid Inhibition of TBPS Binding
[^35S]-t-Butylbicyclophosphorothionate (TBPS) binding assays using rat brain cortical membranes in the presence of 5 mM GABA has been described (Gee et al, J. Pharmacol. Exp. Ther. 1987, 241, 346-353; Hawkinson et al, Mol. Pharmacol. 1994, 46, 977-985; Lewin, A. H et al., Mol. Pharmacol. 1989, 35, 189-194).
Briefly, cortices are rapidly removed following decapitation of carbon dioxide-anesthetized Sprague-Dawley rats (200-250 g). The cortices are homogenized in 10 volumes of ice-cold 0.32 M sucrose using a glass/teflon homogenizer and centrifuged at 1500×g for 10 min at 4° C. The resultant supernatants are centrifuged at 10,000×g for 20 min at 4° C. to obtain the P2 pellets. The P2 pellets are resuspended in 200 mM NaCl/50 mM Na—K phosphate pH 7.4 buffer and centrifuged at 10,000×g for 10 min at 4° C. This washing procedure is repeated twice and the pellets are resuspended in 10 volumes of buffer. Aliquots ([…]) of the membrane suspensions are incubated with 3 nM [^35S]-TBPS and […] aliquots of test drug dissolved in dimethyl sulfoxide (DMSO) (final 0.5%) in the presence of 5 mM GABA. The incubation is brought to a final volume of 1.0 mL with buffer. Nonspecific binding is determined in the presence of […] and ranged from 15 to 25%. Following a 90 min incubation at room temp, the assays are terminated by filtration through glass fiber filters (Schleicher and Schuell No. 32) using a cell harvester (Brandel) and rinsed three times with ice-cold buffer. Filter bound radioactivity is measured by liquid scintillation spectrometry. Non-linear curve fitting of the overall data for each drug averaged for each concentration is done using Prism (GraphPad). […] The concentration of test compound producing 50% inhibition (IC50) of specific binding and the maximal extent of inhibition (Imax) are determined for the individual experiments with the same model used for the overall data and then the means±SEM.s of the individual experiments are calculated.
Various compounds are or can be screened to determine their potential as modulators of [^35S]-TBPS binding in vitro. These assays are or can be performed in accordance with the above

## CCC[C@@]1(O)CC[C@H]2[C@H](CC[C@@H]3[C@@H]2CC[C@]2(C)[C@@H](C(=O)Nc4ncc(C#N)cn4)CC[C@@H]32)C1 [Compound 90, (3R,5R,8R,9R,10S,13S,14S,17S)—N-(5-cyanopyrimidin-2-yl)-3-hydroxy-13-methyl-3-propylhexadecahydro-1H-cyclopenta[a]phenanthrene-17-carboxamide]
  IC50: < 100 nM

## COC[C@@]1(O)CC[C@H]2[C@H](CC[C@@H]3[C@@H]2CC[C@]2(C)[C@@H](C(=O)Nc4ccnc(C#N)n4)CC[C@@H]32)C1 [Compound 91, (3R,5R,8R,9R,10S,13S,14S,17S)—N-(2-cyanopyrimidin-4-yl)-3-hydroxy-3-(methoxymethyl)-13-methylhexadecahydro-1H-cyclopenta[a]phenanthrene-17-carboxamide]
  IC50: < 100 nM

## COC[C@@]1(O)CC[C@H]2[C@H](CC[C@@H]3[C@@H]2CC[C@]2(C)[C@@H](C(=O)Nc4nccc(C#N)n4)CC[C@@H]32)C1 [Compound 92, (3R,5R,8R,9R,10S,13S,14S,17S)—N-(4-cyanopyrimidin-2-yl)-3-hydroxy-3-(methoxymethyl)-13-methylhexadecahydro-1H-cyclopenta[a]phenanthrene-17-carboxamide]
  IC50: 100 to 1000 nM

## CCC[C@@]1(O)CC[C@H]2[C@H](CC[C@@H]3[C@@H]2CC[C@]2(C)[C@@H](C(=O)Nc4nccc(C#N)n4)CC[C@@H]32)C1 [Compound 93, (3R,5R,8R,9R,10S,13S,14S,17S)—N-(4-cyanopyrimidin-2-yl)-3-hydroxy-13-methyl-3-propylhexadecahydro-1H-cyclopenta[a]phenanthrene-17-carboxamide]
  IC50: < 100 nM

## COC[C@@]1(O)CC[C@H]2[C@H](CC[C@@H]3[C@@H]2CC[C@]2(C)[C@@H](C(=O)Nc4cc(C#N)ncn4)CC[C@@H]32)C1 [Compound 94, (3R,5R,8R,9R,10S,13S,14S,17S)—N-(6-cyanopyrimidin-4-yl)-3-hydroxy-3-(methoxymethyl)-13-methylhexadecahydro-1H-cyclopenta[a]phenanthrene-17-carboxamide]
  IC50: < 100 nM

## COC[C@@]1(O)CC[C@H]2[C@H](CC[C@@H]3[C@@H]2CC[C@]2(C)[C@@H](C(=O)Nc4cncc(C#N)n4)CC[C@@H]32)C1 [Compound 95, (3R,5R,8R,9R,10S,13S,14S,17S)—N-(6-cyanopyrazin-2-yl)-3-hydroxy-3-(methoxymethyl)-13-methylhexadecahydro-1H-cyclopenta[a]phenanthrene-17-carboxamide]
  IC50: < 100 nM

## C[C@@]1(O)CC[C@H]2[C@H](CC[C@@H]3[C@@H]2CC[C@]2(C)[C@@H](C(=O)Nc4ccccc4)CCC[C@@H]32)C1 [Compound 98, (1S,4aS,4bR,6aR,8R,10aS,10bR,12aS)-8-hydroxy-8,12a-dimethyl-N-phenyloctadecahydrochrysene-1-carboxamide]
  IC50: < 100 nM

## CC[C@]12CC[C@@](C)(O)C[C@H]1CC[C@H]1[C@@H]3CCC[C@H](C(=O)Nc4ccccc4)[C@@]3(C)CC[C@@H]12 [Compound 99, (1S,4aS,4bS,6aR,8R,10aS,10bS,12aS)-10a-ethyl-8-hydroxy-8,12a-dimethyl-N-phenyloctadecahydrochrysene-1-carboxamide]
  IC50: < 100 nM

## CCOC[C@@]1(O)CC[C@@]2(CC)[C@H](CC[C@H]3[C@@H]4CCC[C@H](C(=O)Nc5cc(C)n(C)n5)[C@@]4(C)CC[C@@H]32)C1 [Compound 100, (4aS,4bS,6aR,8R,10aS,10bS,12aS)—N-(1,5-dimethyl-1H-pyrazol-3-yl)-8-(ethoxymethyl)-0a-ethyl-8-hydroxy-12a-methyloctadecahydrochrysene-1-carboxamide]
  IC50: < 100 nM

## CCOC[C@@]1(O)CC[C@@]2(CC)[C@H](CC[C@H]3[C@@H]4CCC[C@H](C(=O)Nc5cc(C)nn5C)[C@@]4(C)CC[C@@H]32)C1 [Compound 101, (1S,4aS,4bS,6aR,8R,10aS,10bS,12aS)—N-(1,3-dimethyl-1H-pyrazol-5-yl)-8-(ethoxymethyl)-10a-ethyl-8-hydroxy-12a-methyloctadecahydrochrysene-1-carboxamide]
  IC50: < 100 nM
